Test results reported in patent EP1220845B1, “ARYL-SULFONAMIDE SUBSTITUTED BENZIMIDAZOL DERIVATIVES AND USE OF SAID AS TRYPTASE INHIBITORS” (Boehringer Ingelheim Pharma GmbH & Co.KG, priority 1999, dated 2001).
pIC50: −log10 of the molar value. Counter-ions that a name gives are not always drawn.

Biological target: T1, rh beta Tryptase (Homo sapiens, UniProt Q15661)
T1 construct: purchased Promega
Test: Tryptase inhibition test (cleavage of chromogenic substrate, p-nitroaniline read at 405 nm)
Assay type: biochemical
Settings: Tris HCl buffer 100 mM, calcium 5 mM, heparin, pH 7.4, 37°C; substrate N-p-Tosyl-Gly-Pro-Lys-para-nitroanilin 0.6 mM; 5 min preincubation, 5 min incubation; 0.91 U/ml enzyme
Protocol: Die erfindungsgemäßen Verbindungen zeichnen sich durch ihre Tryptase-inhibierende Wirksamkeit aus. Besagte Fähigkeit, die Tryptase zu inhibieren, wurde gemäß der nachfolgenden Testbeschreibung untersucht. Die Bestimmung wird in Tris HCI Puffer (100 mM), der zusätzlich Calcium (5 mM) und Heparin ([…]) enthält, bei pH 7.4 durchgeführt. Als Standard wird rh beta Tryptase eingesetzt, die beispielsweise von Promega käuflich zu erwerben ist. Als Substrat dient N-p-Tosyl-[…]-nitroanilin in einer Konzentration von 0.6 mM. Das Substrat wird durch Tryptase verdaut wobei p-Nitroanilin entsteht, das bei 405 nm gemessen werden kann. Üblicherweise wird eine Inkubationszeit von 5 Minuten und eine Inkubationstemperatur von 37°C gewählt. Als Enzymaktivität werden 0.91 U/ml eingesetzt. Die Bestimmung erfolgt in einem Autoanalyser (Cobas Bio) der Firma Hofmann LaRoche. Die potentiellen Hemmsubstanzen werden in Konzentrationen von 10 μM im Screening eingesetzt, wobei die Hemmung der Tryptase in Prozent angegeben wird. […] Nach 5-minütiger Vorinkubation der potentiellen Hemmsubstanzen, wird das Substrat zum […] Reaktion zugegeben, wobei die Bildung von p-Nitroanilin […]. […]

T1 sequence (Q15661 31-275): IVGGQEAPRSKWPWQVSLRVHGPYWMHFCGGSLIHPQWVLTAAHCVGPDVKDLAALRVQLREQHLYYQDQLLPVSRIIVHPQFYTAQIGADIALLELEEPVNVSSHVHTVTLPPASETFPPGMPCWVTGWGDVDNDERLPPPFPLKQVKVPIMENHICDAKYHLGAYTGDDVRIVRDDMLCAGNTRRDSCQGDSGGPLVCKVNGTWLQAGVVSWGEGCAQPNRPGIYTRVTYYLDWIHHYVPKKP

CCN(CC)CCN(c1ccc2c(c1)nc(CCc1ccc(C(=N)N)cc1)n2C)S(=O)(=O)c1cccc2c(N(C)C)cccc12 [Beispiel 2, N-{2-[2-(4-Amidinophenyl)ethyl]-1-methyl-benzimidazol-5-yl}-N-diethylaminoethyl-(dansylamid)-dihydrochlorid]
pIC50: 7.96
